From PubChem BioAssay AID179 (DTP/NCI, 2004)
The source made the active and inactive calls.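 Rule for the calls: active = compounds giving half or more protection of infected cells from virus-caused growth loss, again on retest; inactive = the rest.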

Tested on: CEM cells HIV-1 protection, formazan growth assay
Assay: NCI AIDS Antiviral Assay
Conditions: for IC50: measured here: growth of uninfected CEM cells
Summary of the method: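 Screen of anti-HIV-1 activity in human CEM cells using a formazan-based growth measurement at five drug concentrations. Hits with 50% or greater protection were repeated, and confirmation required reproducible complete protection.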

SMILES	EC50 [µM]	IC50 [µM]	outcome
Cc1cc(C2CC(O)C(CO)O2)c(F)cc1F (centres undefined)	> 200	> 200	
COC1/C=C/OC2(C)Oc3c(C)c(O)c4c(O)c(c(C=NN5CCCCCCCCCC5)c(O)c4c3C2=O)NC(=O)/C(C)=C/C=C/C(C)C(O)C(C)C(O)C(C)C(OC(C)=O)C1C (centres undefined)	> 200	6.17	
CCOC(=O)OC1C(Br)C2CCC1(C)C2(C)C (centres undefined)	> 200	> 200	
COc1ccccc1C1(C)SCc2nc3ccccc3n21 (centres undefined)	> 87.1	79.4	
CCCCCCCCCCCC(=O)OC(COC(N)=O)COc1ccc(Cl)cc1 (centres undefined)	> 12.3	> 12.3	
C/C(=C/c1cc(=O)n(C)c2ccccc12)[N+](=O)[O-]	> 200	0.832	
O=C1NC(=O)C(=Cc2cccc(F)c2)C(=O)N1	> 112	> 112	
FC(F)(F)C1(c2ccccc2)SCc2nc3ccccc3n21 (centres undefined)	77.6	105	
COC(=O)c1cc(C)ccc1C1CN=NC12Cc1c(C)cc(C)cc1C2=O (centres undefined)	> 200	29.5	
Cc1no[n+]([O-])c1/C=N/NS(=O)(=O)c1ccccc1	> 891	407	
CO[C@@H]1C=C[C@@]23c4cc5c(cc4C(=O)O[C@H]2CN(C)[C@H]3C1)OCO5	> 380	> 380	
C/C(CC(=O)Nc1ccc([N+](=O)[O-])cc1)=N\Nc1ccc([N+](=O)[O-])cc1[N+](=O)[O-]	> 24.5	> 24.5	
CC(C)[Si](OC12CCC(CC1O)CC2CO)(C(C)C)C(C)C (centres undefined)	> 200	24.5	
CCNc1ccc(-c2ccccc2)nc1N1CCN(C(=O)c2cc3cc(OC)ccc3[nH]2)CC1	> 200	24	
NC(=S)N/N=C\C12CC3CC(CC(C3)C1)C2			inactive
O=C1C(c2ccccc2)=C(c2ccccc2)C(c2ccc(-c3ccc(C4=C(c5ccccc5)C(=O)C(c5ccccc5)=C4c4ccccc4)cc3)cc2)=C1c1ccccc1	> 3.55	> 3.55	
Cc1ccc2oc(=O)c3c(O)c4cccc(OC5OC(C)C6O[C@@H](c7ccccc7)OC6C5OC5OC(C)C(O)C(O)C5O)c4c4oc(=O)c1c2c34 (some centres undefined)	> 7.24	0.0324	
Cc1cn(C2CC(ONC(N)=O)C(CO[Si](C)(C)C(C)(C)C)O2)c(=O)[nH]c1=O (centres undefined)	> 200	105	
COc1ccc(OC)c(N(CN2C(=O)CCC2C(=O)O)C(C)=O)c1 (centres undefined)	> 200	> 200	
COc1ccc(C(=O)/C=C/c2ccc(OCCSCCCCCCCCCCSCCOc3ccc(/C=C/C(=O)c4ccc(OC)cc4)cc3)cc2)cc1	> 200	> 200	
Cc1cn(C(C)OCCO[Si](C)(C)C(C)(C)C)c(=O)[nH]c1=O (centres undefined)	> 200	112	
CC(C)NCC1CCc2cc(CO)c([N+](=O)[O-])cc2N1 (centres undefined)	> 200	> 200	

SMILES	EC50 [µM]	IC50 [µM]	outcome
O=C(CC1(O)C(=O)Nc2ccc([N+](=O)[O-])cc21)c1ccc(Br)cc1 (centres undefined)	> 41.7	> 41.7	
NC(=O)C(=O)CC(=O)c1ccccc1NC1=CC(=O)C(=O)c2ccccc21	> 20	> 20	
CCOC(=O)C(Br)=C1OC(=O)c2ccccc2-c2ccccc21 (mixture of isomers)	> 36.3	> 36.3	
CCOC(=O)C(C)(C)Oc1ccc2c(=O)cc(-c3ccc(Cl)cc3)oc2c1	> 18.6	> 18.6	
COC1(OC)CC(CO)(CNc2nc(N)nc(Cl)c2C=O)C1	> 162	14.1	
C/C=C/C=C/c1cc2cc3c(c(O)c2c(=O)[nH]1)C1(CC3)C(O)=c2c(=O)c3c(=O)cc(OC)c(=O)c=3c(=O)c2=C1O (centres undefined)	> 200	5.89	
COc1ccc(S(=O)(=O)N/N=C(\C)CN2C(=O)c3ccccc3C2=O)cc1	> 129	> 129	
CCOc1ccc(NC(=O)CCc2nnc(SC)o2)cc1	> 162	> 162	
O=C1/C(=C/c2cccc(O)c2)SC(=S)N1/C=C\c1nc2ccccc2[nH]c1=O	> 200	81.3	
CC(C)CCCCCCCCCCCCC(=O)NCC(=O)NC1C(C)OC(Nc2ncnc3c2ncn3C)C(O)C1O (centres undefined)			inactive
O=C1OC(=O)C2C1C1C(c3ccccc3)=C(c3ccccc3)C2(O)C2C(=O)OC(=O)C12 (centres undefined)	> 17.4	10.2	
COc1c2c(cc3ccc(=O)oc13)CCO2	> 204	> 204	
COc1ccc(NC(=S)/C(=C(\[O-])c2ccc([N+](=O)[O-])cc2)[n+]2ccc(C(C)C)cc2)cc1	> 200	> 100	
c1coc(-c2cc(-c3cc(-c4ccco4)on3)no2)c1	> 933	589	
CCCCCCCCCCCCCCCCP(=O)(O)OP(=O)(O)OCC1OC(n2cnc3c(N)ncnc32)C(O)C1O (centres undefined)	> 100	19.5	
CC1OC(Oc2c(-c3ccc(O)c(O)c3)oc3cc(O)cc(O)c3c2=O)C(O)C(O)C1O (centres undefined)			inactive
CCOC(=O)CSc1nc(-c2ccc(OC)cc2)c(C#N)c(=O)[nH]1	> 200	97.7	
CS(=O)(=O)c1cnnc2ccccc12	> 513	> 513	
Cc1ccc(/C=C2\Cc3cc(C)c(C)cc3C2=O)c(C(=O)O)c1	> 200	38.9	
O=C(CNC(=O)c1ccc(Cl)cc1)NO	> 200	> 200	
Cc1nccc2c1cnc1ccnn12	> 28.2	> 28.2	
COC(=O)C(C(=O)C(=O)NC1Nc2ccc(C)cc2S1)c1nc2ccc(Cl)cc2[nH]c1=O (centres undefined)	> 28.8	> 28.8	

SMILES	EC50 [µM]	IC50 [µM]	outcome
CCn1cc(C(=O)O)c(=O)c2cc(F)c(-n3cccc3)cc21			inactive
O=C(NCCCNCCCCNCCCNC(=O)c1cc(-c2ccccc2)nc2ccccc12)c1cc(-c2ccccc2)nc2ccccc12	> 20	3.8	
CCOC(=O)/C=C1\CONC(c2ccc(OC)cc2)=N1	> 19.1	> 19.1	
C/C(=N/N=C(\[O-])c1ccncc1)C(F)(F)F.C/C(=N\N=C(/[O-])c1ccncc1)C(F)(F)F.[Ni+2]	> 200	89.1	
O=C1OC(=O)C([Se]c2ccccc2)=C1[Se]c1ccccc1			inactive
N.N.N.N.N.O=[N+]([O-])[O-].[Co+3].[O-][Cl+3]([O-])([O-])[O-]			inactive
CN(C)/C=C1\CCc2ccc([N+](=O)[O-])cc2C1=O	> 200	93.3	
CCOC(=O)[C@@]12C[C@](/C=C/OC)(O[Si](C)(C)C)[C@@]13c1cc(OC)c(OC)cc1CCN3C(=O)C2O (some centres undefined)	> 200	> 200	
CSC1(C(=O)O)C2CCC3C2CCC31 (centres undefined)			inactive
CC12CCC(C(=O)OC1=O)C2(C)C (centres undefined)	> 200	> 200	
CC/C(=C\c1ccc(OC)cc1)c1ccc(OC)cc1	> 200	> 200	
COC(=O)/C=c1\sc2n(c1=O)CCCCN=2	> 417	240	
CCOC(=O)C1=NC(c2ccccc2)(c2ccccc2)OC1=C(Cl)Cl	> 1	> 1	
CCCCc1ccc(-n2c3nc(=O)n(C)c(=O)c-3nc3ccccc32)cc1			inactive
O=C1Nc2noc(=O)nc2NO1	> 200	> 200	
NCCCN=c1ccc2c3c1c(O)c1c(O)ccc(=O)c1c3[nH]n2CCNCCO	> 525	1.07	
CCC/C(=N/OC(=O)N(C)C)c1ccccc1	> 200	135	
CCSc1nc(N)c2c(-c3ccccc3)c3c(nc2n1)CCC3	> 100	> 100	
COc1ccc(/C=C(/C(=O)O)c2ccccc2)cc1	> 708	288	
COc1cccc(/C=N/NC(=O)CN(C)C)c1O	> 200	51.3	
COC(=O)CN1C(=O)c2cccc3cc([N+](=O)[O-])cc(c23)C1=O	> 200	21.9	
CC1CCCC2=C1C(c1ccc(Cl)cc1)n1c(s/c(=C\c3ccc(Cl)cc3)c1=O)=N2 (centres undefined)			inactive

SMILES	EC50 [µM]	IC50 [µM]	outcome
CN(C)CC/C=C1\c2ccccc2CSc2ccccc21	> 200	32.4	
O=C1C(=Cc2ccc([N+](=O)[O-])cc2)C(=O)c2ccccc21	> 49	11.7	
CC1=Nc2ccccc2NC2(C1)C(C1COC(C)(C)O1)OC1OC(C)(C)OC12 (centres undefined)			inactive
O=c1n(-c2ccccc2)c(=O)n(-c2ccccc2)c(=O)n1-c1ccccc1	> 200	> 200	
CCOC(=O)C[C@@H]1C2(C=C[C@@]13CO3)OCC(C)(C)CO2	> 200	129	
COC(=O)c1nc(=S)[nH]c(C(=O)OC)c1C(=O)/C=C/c1ccccc1	> 191	120	
O=C(O)c1ccccc1/C=C1\Cc2ccccc2C1=O	> 200	120	
CC1=CC(=Nc2cccc3c(N=C4C=C(C)C(=O)O4)cccc23)OC1=O	> 200	1.41	
CNC(=O)CN(CC(N)=O)C(N)=O	> 191	> 191	
Oc1ccccc1/C=N\NC(=S)Nc1ccc2cn[nH]c2c1	> 200	126	
COC(=O)c1nn(C(=N)c2ccc(Cl)cc2)c2c1CCCCC2	> 380	> 380	
C[N+]1(C)CN(c2ccccc2)C2(CCN(CCCC(=O)c3cccs3)CC2)C1=O	> 200	55	
CC(=O)OCC1=C2C(OC(=O)C(C)C)CC3(COC(C)=O)OC3/C=C\C3(C)OC3C2OC1=O (centres undefined)	> 200	75.9	
O=C1C2C(C(=O)N1O)N(Cc1ccccc1)C(=O)N2Cc1ccccc1 (centres undefined)	> 708	> 708	
N#CC1C(=O)SC2c3ccccc3C(=O)c3ccccc3C12 (centres undefined)	> 200	132	
COc1ccc(/C=c2/s/c(=C(\C#N)c3nc4ccccc4[nH]3)n(-c3ccccc3)c2=O)cc1	> 200	37.2	
CC1(C)OC2OC(CO)C(N)C2O1 (centres undefined)			inactive
CCCC(O)[C@@]1(CC)CC(C)C(O)(C2(C)C[C@H](C)[C@@H](C(CC)C(=O)C(C)[C@@H](O)[C@H](C)C3OC(O)(C(CC)C(=O)O)[C@@H](C)C(O)C3CC)O2)O1 (some centres undefined)	0.138	1.78	
CC(C(=O)ON1C(=O)CCC1=O)c1ccc(C(=O)c2ccccc2)s1 (centres undefined)	> 200	> 200	
